In brackets after ≈: the same amount, converted by molar mass. Several values for one entry are separate records, joined by “and”; a condition that tells them apart may be missing. Identical values can stand only once. Like-named read-outs stand apart in the source and are kept apart here.
How the values were obtained:
[1] = test system: Mycobacterium tuberculosis H37Rv (ATCC 27294); experiment: Minimum Inhibitory Concentration (MIC), broth microdilution in 96-well plates; format: cell-based
[2] = test system: Mycobacterium tuberculosis H37Rv (ATCC 27294); experiment: microbe, parasite or virus in culture; format: cell-based; conditions: 504 h

SMILES	MIC [1]	MBC [2]	MIC ([1]; M. tuberculosis H37Rv, 10th day of incubation, concentration with no visible turbidity, read-out: MIC)	MIC ([1]; M. tuberculosis H37Rv, 10th day of incubation, same MIC expressed in nM, read-out: MIC)
O=C(NCCOc1ccc(-c2ccccc2)cc1)c1cc([N+](=O)[O-])cc([N+](=O)[O-])c1 [Compound 1]	0.063 µg/mL and 0.155 µM			
O=C(NCCOc1ccc(Br)cc1)c1cc([N+](=O)[O-])cc([N+](=O)[O-])c1 [Compound 5]	0.063 µg/mL and 0.154 µM			
O=C(NCCOc1ccc(C(F)(F)F)cc1)c1cc([N+](=O)[O-])cc([N+](=O)[O-])c1 [Compound 6]	0.125 µg/mL and 0.313 µM			
O=C(NCCOc1ccc(Cc2ccccc2)cc1)c1cc([N+](=O)[O-])cc([N+](=O)[O-])c1 [Compound 7]	0.063 µg/mL and 0.149 µM			
O=C(NCCCOc1ccc(-c2ccccc2)cc1)c1cc([N+](=O)[O-])cc([N+](=O)[O-])c1 [Compound 8, N-(3-(4-phenylphenoxy)propyl)-3,5-dinitrobenzamide]	0.063 µg/mL and 0.149 µM	0.125 µg/mL (≈ 0.297 µM)		
COc1ccc(OCCCNC(=O)c2cc([N+](=O)[O-])cc([N+](=O)[O-])c2)cc1 [Compound 9, N-(3-(4-methoxyphenoxy)propyl)-3,5-dinitrobenzamide]	0.063 µg/mL and 0.168 µM	0.125 µg/mL (≈ 0.333 µM)		
O=C(NCCCOc1ccc(OC(F)(F)F)cc1)c1cc([N+](=O)[O-])cc([N+](=O)[O-])c1 [Compound 10, N-(3-(4-trifluoromethoxyphenoxy)propyl)-3,5-dinitrobenzamide]	0.063 µg/mL and 0.147 µM	0.25 µg/mL (≈ 0.582 µM)		
O=C(NCCCOc1ccc(F)cc1)c1cc([N+](=O)[O-])cc([N+](=O)[O-])c1 [Compound 11, N-(3-(4-fluorophenoxy)propyl)-3,5-dinitrobenzamide]	0.063 µg/mL and 0.173 µM	0.125 µg/mL (≈ 0.344 µM)		
O=C(NCCCOc1ccc(C(F)(F)F)cc1)c1cc([N+](=O)[O-])cc([N+](=O)[O-])c1 [Compound 12, N-(3-(4-trifluoromethylphenoxy)propyl)-3,5-dinitrobenzamide]	0.125 µg/mL and 0.302 µM			
O=C(NCCCOc1ccccc1)c1cc([N+](=O)[O-])cc([N+](=O)[O-])c1 [Compound 13, N-(3-(phenoxy)propyl)-3,5-dinitrobenzamide]	0.063 µg/mL and 0.182 µM	0.125 µg/mL (≈ 0.362 µM)		
O=C(NCCCCCOc1ccc(-c2ccccc2)cc1)c1cc([N+](=O)[O-])cc([N+](=O)[O-])c1 [Compound 14, N-(5-(4-phenylphenoxy)pentyl)-3,5-dinitrobenzamide]	0.063 µg/mL and 0.14 µM	0.125 µg/mL (≈ 0.278 µM)		
COc1ccc(OCCCCCNC(=O)c2cc([N+](=O)[O-])cc([N+](=O)[O-])c2)cc1 [Compound 15, N-(5-(4-methoxyphenoxy)pentyl)-3,5-dinitrobenzamide]	0.063 µg/mL and 0.156 µM	0.125 µg/mL (≈ 0.31 µM)		
O=C(NCCCCCOc1ccc(OC(F)(F)F)cc1)c1cc([N+](=O)[O-])cc([N+](=O)[O-])c1 [Compound 16, N-(5-(4-trifluoromethoxyphenoxy)pentyl)-3,5-dinitrobenzamide]	0.031 µg/mL and 0.0678 µM	0.063 µg/mL (≈ 0.138 µM)		
O=C(NCCCCCOc1ccc([N+](=O)[O-])cc1)c1cc([N+](=O)[O-])cc([N+](=O)[O-])c1 [Compound 17, N-(5-(4-nitrophenoxy)pentyl)-3,5-dinitrobenzamide]	0.031 µg/mL and 0.0741 µM	0.125 µg/mL (≈ 0.299 µM)		
O=C(NCCCCCOc1ccc(F)cc1)c1cc([N+](=O)[O-])cc([N+](=O)[O-])c1 [Compound 18, N-(5-(4-fluorophenoxy)pentyl)-3,5-dinitrobenzamide]	0.031 µg/mL and 0.0792 µM	0.063 µg/mL (≈ 0.161 µM)		
O=C(NCCCCCOc1ccc(Cl)cc1)c1cc([N+](=O)[O-])cc([N+](=O)[O-])c1 [Compound 19, N-(5-(4-chlorophenoxy)pentyl)-3,5-dinitrobenzamide]	0.016 µg/mL and 0.0392 µM	0.063 µg/mL (≈ 0.154 µM)		
O=C(NCCCCCOc1ccc(C(F)(F)F)cc1)c1cc([N+](=O)[O-])cc([N+](=O)[O-])c1 [Compound 20, N-(5-(4-trifluoromethylphenoxy)pentyl)-3,5-dinitrobenzamide]	0.031 µg/mL and 0.0702 µM	0.063 µg/mL (≈ 0.143 µM)		
O=C(NCCCCCOc1ccc(Cc2ccccc2)cc1)c1cc([N+](=O)[O-])cc([N+](=O)[O-])c1 [Compound 21, N-(5-(4-benzylphenoxy)pentyl)-3,5-dinitrobenzamide]	0.063 µg/mL and 0.136 µM	0.25 µg/mL (≈ 0.539 µM)		
O=C(NCCCCCOc1ccc(Br)cc1)c1cc([N+](=O)[O-])cc([N+](=O)[O-])c1 [Compound 22, N-(5-(4-bromophenoxy)pentyl)-3,5-dinitrobenzamide]	0.031 µg/mL and 0.0685 µM	0.063 µg/mL (≈ 0.139 µM)		
O=C(NCCCCCOc1ccccc1)c1cc([N+](=O)[O-])cc([N+](=O)[O-])c1 [Compound 23, N-(5-(phenoxy)pentyl)-3,5-dinitrobenzamide]	0.031 µg/mL and 0.083 µM	0.063 µg/mL (≈ 0.169 µM)		

SMILES	MIC [1]	MBC [2]	MIC ([1]; M. tuberculosis H37Rv, 10th day of incubation, concentration with no visible turbidity, read-out: MIC)	MIC ([1]; M. tuberculosis H37Rv, 10th day of incubation, same MIC expressed in nM, read-out: MIC)
COc1ccc(OCCCCCCCCCNC(=O)c2cc([N+](=O)[O-])cc([N+](=O)[O-])c2)cc1 [Compound 24, N-(9-(4-methoxyphenoxy)nonyl)-3,5-dinitrobenzamide]	0.016 µg/mL and 0.0348 µM	0.031 µg/mL (≈ 0.0675 µM)		
COc1ccc(OCCCCCCCCCCCNC(=O)c2cc([N+](=O)[O-])cc([N+](=O)[O-])c2)cc1 [Compound 26, N-(11-(4-methoxyphenoxy)undecyl)-3,5-dinitrobenzamide]	0.063 µg/mL and 0.129 µM	0.125 µg/mL (≈ 0.256 µM)		
C[N+]1(C)CCN(C(=O)c2cc([N+](=O)[O-])cc([N+](=O)[O-])c2)CC1 [Compound 28, 4-(3,5-dinitrobenzoyl)-1,1-dimethylpiperazin-1-ium]	> 16 µg/mL	> 16 µg/mL		
O=C(c1cc([N+](=O)[O-])cc([N+](=O)[O-])c1)N1CCN(Cc2ccccc2)CC1 [Compound 29, (3,5-dinitrophenyl)-4-benzylpiperazin-1-yl-methanone]	2 µg/mL and 5.4 µM	4 µg/mL (≈ 10.8 µM)		
O=C(c1cc([N+](=O)[O-])cc([N+](=O)[O-])c1)N1CCC(Cc2ccccc2)CC1 [Compound 31, (3,5-dinitrophenyl)-4-benzylpiperidin-1-yl-methanone]	0.5 µg/mL and 1.35 µM	2 µg/mL (≈ 5.41 µM)		
COc1ccc(OC2CCN(C(=O)c3cc([N+](=O)[O-])cc([N+](=O)[O-])c3)CC2)cc1 [Compound 32, (3,5-dinitrophenyl)(4-(4-methoxyphenoxy)piperidin-1-yl)methanone]	2 µg/mL and 4.98 µM			
O=C(c1cc([N+](=O)[O-])cc([N+](=O)[O-])c1)N1CCC(O)CC1 [Compound 33, (3,5-dinitrophenyl)-4-hydroxypiperidin-1-yl-methanone]	> 16 µg/mL	16 µg/mL (≈ 54.2 µM)		
O=C(c1cc([N+](=O)[O-])cc([N+](=O)[O-])c1)N1CCCCC1 [Compound 34, (3,5-dinitrophenyl)-piperidin-1-yl-methanone]	> 16 µg/mL	16 µg/mL (≈ 57.3 µM)		
O=C(c1cc([N+](=O)[O-])cc([N+](=O)[O-])c1)N1CCOCC1 [Compound 35, (3,5-dinitrophenyl)(morpholino)methanone]	> 16 µg/mL	> 16 µg/mL		
CCCCCCCCCOCCCCCCCCCNC(=O)c1cc([N+](=O)[O-])cc([N+](=O)[O-])c1 [Compound 36, N-(9-(nonyloxy)nonyl)-3,5-dinitrobenzamide]	0.063 µg/mL and 0.127 µM			
O=C(NCCCCCCCCCO)c1cc([N+](=O)[O-])cc([N+](=O)[O-])c1 [Compound 37, N-(9-hydroxynonyl)-3,5-dinitrobenzamide]	0.25 µg/mL and 0.707 µM			
O=C(NCCCCCO)c1cc([N+](=O)[O-])cc([N+](=O)[O-])c1 [Compound 38, N-(5-hydroxypentyl)-3,5-dinitrobenzamide]	2 µg/mL and 6.73 µM			
O=C(NCCCO)c1cc([N+](=O)[O-])cc([N+](=O)[O-])c1 [Compound 39, N-(3-hydroxypropyl)-3,5-dinitrobenzamide]	4 µg/mL and 14.9 µM			
O=C(NCCO)c1cc([N+](=O)[O-])cc([N+](=O)[O-])c1 [Compound 40, N-(2-hydroxyethyl)-3,5-dinitrobenzamide]	16 µg/mL and 62.7 µM			
O=C(NCCCCCCCCCCCO)c1cc([N+](=O)[O-])cc([N+](=O)[O-])c1 [Compound 41, N-(11-hydroxyundecyl)-3,5-dinitrobenzamide]	0.125 µg/mL and 0.328 µM	0.25 µg/mL (≈ 0.655 µM)		
O=C(NCCOc1ccccc1)c1cc([N+](=O)[O-])cc(C(F)(F)F)c1 [Compound 42]			0.25 µg/mL	671 nM
O=C(NCCCCCN1CCCCC1)c1cc([N+](=O)[O-])cc([N+](=O)[O-])c1 [Compound 44]	16 µg/mL and 43.9 µM	> 16 µg/mL		
O=[N+]([O-])c1cc(C2=NCCO2)cc([N+](=O)[O-])c1 [Compound 47, 2-(3,5-dinitrophenyl)-4,5-dihydrooxazole]	2 µg/mL and 8.43 µM	4 µg/mL (≈ 16.9 µM)		
O=[N+]([O-])c1cc(C2=NCCCO2)cc([N+](=O)[O-])c1 [Compound 48, 2-(3,5-dinitrophenyl)-5,6-dihydro-4H-1,3-oxazine]	16 µg/mL and 63.7 µM	> 16 µg/mL		
